Experiments:
NHDF GDF15 = assay: Western blotting of GDF15 expression in NHDF; format: cell-based, human; conditions: 50 μg/mL, 24 hours, versus control with nothing added
Experimental: 50 μg/mL of the O-GlcNAcylated protein-like substance, the AC-GlcNAc monomer, or N-acetylglucosamine (GlcNAc) prepared in Polymerization Examples 1 to 5 was added to NHDF, and incubation was performed for 24 hours. After the incubation, the expression of NHDF GDF15 was examined by Western blotting. Furthermore, the control was one to which nothing was added.
Furthermore, 10 μg/mL, 50 μg/mL, and 100 μg/mL of the O-GlcNAcylated protein-like substances (AC-GlcNAc10, mass-average molecular weight: 4,000, number-average molecular weight: 3,100) prepared in Polymerization Example 1 were each added to NHDF, and incubation was performed for 24 hours. After the incubation, the expression of NHDF GDF15 was observed by Western blotting. Furthermore, the control was one to which nothing was added.

NHDF = assay: Chemotaxis of NHDF under agarose gel containing the substance; format: cell-based, human; conditions: FIG. 10, comparison of polymer, monomer, GlcNAc and PBS
Experimental: Using AC-GlcNAc (10-mer) as an O-GlcNAcylated protein-like substance, 250 μg/mL AC-GlcNAc (10-mer) was mixed with an agarose gel to prepare an O-GlcNAcylated protein-like substance-containing agarose gel. In addition, a PBS-containing agarose gel was prepared using PBS instead of the O-GlcNAcylated protein-like substance. A glass plate was placed in a petri dish, each agarose gel was added dropwise onto the glass plate, NHDF was further seeded on the entire glass plate, and incubation was performed for one day.
Next, agarose gels having blending amounts of 50 μg/mL, 100 μg/mL, and 250 μg/mL of the O-GlcNAcylated protein-like substance were prepared, and the chemotaxis of NHDF was evaluated in the same manner as above. […]
Next, the chemotaxis of NHDF by an O-GlcNAcylated protein-like substance was evaluated. The materials used were the O-GlcNAcylated protein-like substance prepared in Polymerization Example 1, the AC-GlcNAc monomer prepared in Polymerization Example 5, and N-acetylglucosamine (GlcNAc) and PBS used in Example 2, and the chemotaxis of NHDF was evaluated in the same manner as above. […]
Next, it was evaluated by the same method as above whether or not there was a difference in the chemotaxis of NHDF due to the difference in the degree of polymerization of the O-GlcNAcylated protein-like substance. […]

Structure (SMILES)	expression of GDF15 (Western blotting) (NHDF GDF15)	invasion of cells under the agarose gel (NHDF)
C=CC(=O)OCCC(=O)NC1OC(CO)[C@@H](O)C(O)C1NC(C)=O (stereo partly shown) [AC-GlcNAc monomer]	almost the same effect as the control	cells invaded under the agarose gel only with the O-GlcNAcylated protein-like substance of Polymerization Example 1
CC(=O)N[C@H]1C(O)O[C@H](CO)[C@@H](O)[C@@H]1O (stereo partly shown) [GlcNAc, N-acetylglucosamine]	almost the same effect as the control	cells invaded under the agarose gel only with the O-GlcNAcylated protein-like substance of Polymerization Example 1

From patent US20220389047A1, “O-GLCNACYLATED PROTEIN-LIKE SUBSTANCE AND FIBROSIS THERAPEUTIC DRUG CONTAINING SAME” (KYUSHU UNIVERSITY, NATIONAL UNIVERSITY CORPORATION, priority 2019, published 2022)
